How the values were obtained:
[1] = test system: sedge, umbrella; test: Test B flooded paddy test; type: in vivo, Cyperus difformis; settings: Flood, scale of 0 to 100 where 0 is no effect and 100 is complete control
Description: (§1) Plant species in the flooded paddy test selected from rice (Oryza sativa), sedge, umbrella (small-flower umbrella sedge, Cyperus difformis), ducksalad (Heteranthera limosa), and barnyardgrass (Echinochloa crus-galli) were grown to the 2-leaf stage for testing. At time of treatment, test pots were flooded to 3 cm above the soil surface, treated by application of test compounds directly to the paddy water, and then maintained at that water depth for the duration of the test. Treated plants and controls were maintained in a greenhouse for 13 to 15 days, after which time all species were compared to controls and visually evaluated. Plant response ratings, summarized in Table B, are based on a scale of 0 to 100 where 0 is no effect and 100 is complete control. A dash (-) response means no test result.

[2] = test system: wheat; test: Test A pre-/postemergence herbicide test; type: in vivo, Triticum aestivum
Outline: (§2)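 Greenhouse pot test with pre- and postemergence application of surfactant-containing solvent formulations. Postemergence plants were 2–10 cm, one- to two-leaf stage. Response scored visually after ~10 days, 0 (no effect) to 100 (complete control).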

[3] = test system: ducksalad; test: Test B flooded paddy test; type: in vivo, Heteranthera limosa; settings: Flood, scale of 0 to 100 where 0 is no effect and 100 is complete control
Outline: (§3)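 Plants grown to 2-leaf stage; pots flooded 3 cm above soil and compound applied directly into paddy water, depth held throughout. Visual rating against untreated controls after 13 to 15 days in greenhouse, 0 (no effect) to 100 (complete control).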

[4] = test system: rice; test: Test B flooded paddy test; type: in vivo, Oryza sativa; settings: Flood, scale of 0 to 100 where 0 is no effect and 100 is complete control
Outline: as §3

[5] = test system: crabgrass, large; test: Test A pre-/postemergence herbicide test; type: in vivo, Digitaria sanguinalis
Outline: as §2

[6] = test system: morningglory; test: Test A pre-/postemergence herbicide test; type: in vivo, Ipomoea spp.
Outline: as §2

[7] = test system: pigweed; test: Test A pre-/postemergence herbicide test; type: in vivo, Amaranthus retroflexus
Outline: as §2

[8] = test system: corn; test: Test A pre-/postemergence herbicide test; type: in vivo, Zea mays
Outline: as §2

[9] = test system: giant foxtail; test: Test A pre-/postemergence herbicide test; type: in vivo, Setaria faberii
Outline: as §2

[10] = test system: barnyardgrass; test: Test B flooded paddy test; type: in vivo, Echinochloa crus-galli; settings: Flood, scale of 0 to 100 where 0 is no effect and 100 is complete control
Description: as §1

[11] = test system: velvetleaf; test: Test A pre-/postemergence herbicide test; type: in vivo, Abutilon theophrasti
Outline: as §2

[12] = test system: barnyardgrass; test: Test A pre-/postemergence herbicide test; type: in vivo, Echinochloa crus-galli
Outline: as §2

[13] = Postemergence, 125 g ai/ha, 0 to 100 scale, 0 no effect, 100 complete control
[14] = Postemergence, 500 g ai/ha, 0 to 100 scale (0 no effect, 100 complete control)
[15] = Preemergence, 125 g ai/ha, visual rating on 0 to 100 scale (0 no effect, 100 complete control)
[16] = preemergence, 500 g ai/ha, 0 to 100 scale
[17] = preemergence, 500 g ai/ha, 0 to 100 scale (0 no effect, 100 complete control)
[18] = Postemergence, 1000 g ai/ha, 0 to 100 scale (0 no effect, 100 complete control)
[19] = Preemergence, 1000 g ai/ha, visual rating on 0 to 100 scale (0 no effect, 100 complete control), approx. 10 days

SMILES | Plant response rating, Sedge, Umbrella ([1]; 250 g ai/ha) | Plant response rating, Wheat [2, 13] | Plant response rating, Wheat [2, 14] | Wheat plant response rating [2, 15] | Plant response rating, Wheat [2, 16] | Plant response rating, Ducksalad ([3]; 250 g ai/ha) | Plant response rating, Rice ([4]; 250 g ai/ha) | Plant response rating, Crabgrass, Large [5, 13] | Plant response rating, Crabgrass, Large [5, 14] | Crabgrass, Large plant response rating [5, 15] | Plant response rating, Crabgrass, Large [5, 16] | Plant response rating, Morningglory [6, 13] | Plant response rating, Morningglory [6, 14] | Morningglory plant response rating [6, 15] | Plant response rating, Morningglory [6, 16] | Plant response rating, Pigweed [7, 13] | Plant response rating, Pigweed [7, 14] | Pigweed plant response rating [7, 15] | Plant response rating, Pigweed [7, 16] | Plant response rating, Corn [8, 13] | other results
Cc1cccc(C2CNC(=O)C2C(=O)Nc2ccccc2F)c1 (racemic) [Compound 38] | 0 | 0 | 0 | 0 | 0 | 0 | 0 | 0 | 50 | 70 | 80 | 0 | 0 | 0 | 0 | 0 | 0 | 0 | 0 | 0 | Plant response rating, Corn [8, 14]: 0; Corn plant response rating [8, 15]: 0; Plant response rating, Corn [8, 16]: 0; Plant response rating, Foxtail, Giant [9, 13]: 0; Plant response rating, Foxtail, Giant [9, 14]: 20; Foxtail, Giant plant response rating [9, 15]: 0; Plant response rating, Foxtail, Giant [9, 16]: 30; Plant response rating, Barnyardgrass ([10]; 250 g ai/ha): 0; Plant response rating, Velvetleaf [11, 13]: 0; Plant response rating, Velvetleaf [11, 14]: 0; Velvetleaf plant response rating [11, 15]: 0; Plant response rating, Velvetleaf [11, 16]: 0; Plant response rating, Barnyardgrass [12, 13]: 0; Plant response rating, Barnyardgrass [12, 14]: 30; Barnyardgrass plant response rating [12, 15]: 0; Plant response rating, Barnyardgrass [12, 17]: 80
N#Cc1cccc(C2CNC(=O)C2C(=O)Nc2ccccc2F)c1 (racemic) [Compound 72] | 0 | 0 | 0 | 0 | 0 | 60 | 0 | 30 | 70 | 80 | 90 | 0 | 10 | 0 | 0 | 0 | 0 | 0 | 0 | 0 | Plant response rating, Corn [8, 14]: 0; Corn plant response rating [8, 15]: 0; Plant response rating, Corn [8, 16]: 0; Plant response rating, Foxtail, Giant [9, 13]: 10; Plant response rating, Foxtail, Giant [9, 14]: 50; Foxtail, Giant plant response rating [9, 15]: 60; Plant response rating, Foxtail, Giant [9, 16]: 80; Plant response rating, Barnyardgrass ([10]; 250 g ai/ha): 0; Plant response rating, Velvetleaf [11, 13]: 0; Plant response rating, Velvetleaf [11, 14]: 0; Velvetleaf plant response rating [11, 15]: 0; Plant response rating, Velvetleaf [11, 16]: 0; Plant response rating, Barnyardgrass [12, 13]: 20; Plant response rating, Barnyardgrass [12, 14]: 60; Barnyardgrass plant response rating [12, 15]: 0; Plant response rating, Barnyardgrass [12, 17]: 50
O=C1NCC(c2ccc3c(c2)OC(F)(F)O3)C1C(=O)Nc1ccccc1C(F)(F)F (racemic) [Compound 75] | 0 | 0 | 30 | 0 | 30 | 0 | 0 | 60 | 80 | 90 | 90 | 0 | 0 | 0 | 0 | 0 | 0 | 0 | 0 | 0 | Plant response rating, Corn [8, 14]: 0; Corn plant response rating [8, 15]: 0; Plant response rating, Corn [8, 16]: 0; Plant response rating, Foxtail, Giant [9, 13]: 70; Plant response rating, Foxtail, Giant [9, 14]: 80; Foxtail, Giant plant response rating [9, 15]: 80; Plant response rating, Foxtail, Giant [9, 16]: 90; Plant response rating, Barnyardgrass ([10]; 250 g ai/ha): 0; Plant response rating, Velvetleaf [11, 13]: 10; Plant response rating, Velvetleaf [11, 14]: 20; Velvetleaf plant response rating [11, 15]: 0; Plant response rating, Velvetleaf [11, 16]: 0; Plant response rating, Barnyardgrass [12, 13]: 40; Plant response rating, Barnyardgrass [12, 14]: 70; Barnyardgrass plant response rating [12, 15]: 50; Plant response rating, Barnyardgrass [12, 17]: 70
O=C1NCC(c2ccccc2)C1C(=O)Nc1ccccc1Cl (racemic) [Compound 83] | 0 | 0 | 0 | 0 | 0 | 50 | 0 | 20 | 70 | 70 | 90 | 0 | 0 | 0 | 0 | 0 | 0 | 0 | 0 | 0 | Plant response rating, Corn [8, 14]: 0; Corn plant response rating [8, 15]: 0; Plant response rating, Corn [8, 16]: 0; Plant response rating, Foxtail, Giant [9, 13]: 0; Plant response rating, Foxtail, Giant [9, 14]: 50; Foxtail, Giant plant response rating [9, 15]: 0; Plant response rating, Foxtail, Giant [9, 16]: 70; Plant response rating, Barnyardgrass ([10]; 250 g ai/ha): 30; Plant response rating, Velvetleaf [11, 13]: 0; Plant response rating, Velvetleaf [11, 14]: 0; Velvetleaf plant response rating [11, 15]: 0; Plant response rating, Velvetleaf [11, 16]: 0; Plant response rating, Barnyardgrass [12, 14]: 60; Barnyardgrass plant response rating [12, 15]: 0; Plant response rating, Barnyardgrass [12, 17]: 50
O=C1NCC(c2ccccc2)C1C(=O)Nc1ccc(Br)cc1F (racemic) [Compound 84] | 0 | 0 | 0 | 0 | 0 | 0 | 0 | 0 | 20 | 0 | 50 | 0 | 0 | 0 | 0 | 0 | 0 | 0 | 0 | 0 | Plant response rating, Corn [8, 14]: 0; Corn plant response rating [8, 15]: 0; Plant response rating, Corn [8, 16]: 0; Plant response rating, Foxtail, Giant [9, 13]: 0; Plant response rating, Foxtail, Giant [9, 14]: 0; Foxtail, Giant plant response rating [9, 15]: 0; Plant response rating, Foxtail, Giant [9, 16]: 0; Plant response rating, Barnyardgrass ([10]; 250 g ai/ha): 0; Plant response rating, Velvetleaf [11, 13]: 0; Plant response rating, Velvetleaf [11, 14]: 0; Velvetleaf plant response rating [11, 15]: 0; Plant response rating, Velvetleaf [11, 16]: 0; Plant response rating, Barnyardgrass [12, 13]: 0; Plant response rating, Barnyardgrass [12, 14]: 0; Barnyardgrass plant response rating [12, 15]: 0; Plant response rating, Barnyardgrass [12, 17]: 0
O=C1NCC(c2ccc(F)c(F)c2)C1C(=O)Nc1cccnc1C(F)(F)F (racemic) [Compound 98] |  |  |  |  |  |  |  |  |  |  |  |  |  |  |  |  |  |  |  |  | Plant response rating, Sedge, Umbrella ([1]; 1000 g ai/ha): 0; Plant response rating, Wheat [2, 18]: 20; Plant response rating, Wheat [2, 19]: 0; Plant response rating, Ducksalad ([3]; 1000 g ai/ha): 90; Plant response rating, Rice ([4]; 1000 g ai/ha): 0; Plant response rating, Crabgrass, Large [5, 18]: 90; Plant response rating, Crabgrass, Large [5, 19]: 90; Plant response rating, Morningglory [6, 18]: 0; Plant response rating, Morningglory [6, 19]: 0; Plant response rating, Pigweed [7, 18]: 0; Plant response rating, Pigweed [7, 19]: 0; Plant response rating, Corn [8, 18]: 0; Plant response rating, Corn [8, 19]: 20; Plant response rating, Foxtail, Giant [9, 18]: 60; Plant response rating, Foxtail, Giant [9, 19]: 90; Plant response rating, Barnyardgrass ([10]; 1000 g ai/ha): 0; Plant response rating, Velvetleaf [11, 18]: 10; Plant response rating, Velvetleaf [11, 19]: 0; Plant response rating, Barnyardgrass [12, 18]: 50; Plant response rating, Barnyardgrass [12, 19]: 50

Reference: US10294202B2, “Pyrrolidinones as herbicides” (FMC Corporation, priority 2013, dated 2019)
